Entries after “also recorded” stand apart in the source; their conditions may differ.
Legend:
Candida albicans [1] = test: Antigen with mannoside structure of C. albicans in combined vaginal washes (ICT strips); assay type: in vivo, rat; details: combined washes from 5 rats; fluconazole vs untreated infected rats
Source text: Detection of an antigen of C. albicans is useful for diagnosing vaginal candidosis. The antigen comprises a highly immunogenic mannoside structure present in the cell wall of C. albicans. The antigen with mannoside structure is the main antigen present in vaginal infection, it therefore constitutes a useful biomarker for diagnosing […] candidosis.
Another possibility for detecting the presence of the antigen with mannoside structure consists of using ICT strips (Candi Vagi, SR2B). “ICT” is based on capture of the antigen contained in the vaginal secretions using a mouse immunoglobulin IgM directed against the antigen with mannoside structure. The monoclonal antibody recognizes the epitopes of the antigen with mannoside structure for a wide range of Candida species. The monoclonal antibody is conjugated to particles or in a mobile phase and is also applied on a nitrocellulose strip as capture antibody. The ICT stick is put in the suspension of vaginal sample and the samples move by capillary action through the block containing the “MAb-gold” conjugate (Mab for monoclonal antibody). The analysis is performed as described in the publication Marot-Leblond et al., Journal of Clinical Microbiology, 2009.
The antigen with mannoside structure is quantified using non-commercial strips in combined washes from 5 rats.

Candida albicans [2] = test: Rat model of vaginal candidosis: viable C. albicans in the vaginal mucosa (cervico-uterine smears on Chrom-Agar plates); assay type: in vivo; details: for mean growth of the colonies of C. albicans on Chrom-Agar plates (smears): fluconazole 50 μg intravaginal 1 h, 24 h, 48 h after infection
Description: (§1) Ovariectomized female rats (Sprague-Dawley) aged from 3 to 5 weeks are purchased from Janvier Laboratoires, France. They are maintained under pseudo-estrus by a subcutaneous injection of estradiol benzoate (Sigma, estradiol benzoate resuspended in sesame oil; 0.5 mg/animal) every other day (i.e. three times per week) up to the end of the experiment.
(§2) A week after the first injection of estradiol inducing pseudo-estrus, the female rats are infected with C. albicans. Infection with C. albicans corresponds to a single intravaginal administration of the C. albicans strain at a concentration of 10^7 CFU.
(§3) Fluconazole is administered by the intravaginal route at a dose of 50 μg per rat, respectively 1 h, 24 h and 48 h after infection with C. albicans. […]
The number of colonies of C. albicans adhering to the vaginal mucosa is evaluated every two days after infection with Candida albicans and up to the end of the experiment (3 weeks later) by taking a cervico-uterine smear (with a calibrated loop) and by spreading on Chrom-Agar plates (a growth medium specific and selective for Candida), 5 vaginal samples being combined.
The viable colonies of Candida albicans are counted after two days of culture at 30° C. on a selective medium (Chrom-Agar plates, BD).
Another way of expressing the results is to calculate the area under the curve (AUC) between day 2 and day 12, which represents a quantitative marker of the presence of viable C. albicans in the vaginal mucosa of rats receiving or not receiving fluconazole.

Candida albicans [3] = test: Cytologic analysis of vaginal washes (MGG staining), inflammation; assay type: in vivo, rat
Description: The smears are prepared from a cervical sample and from washes.
Preparations of cells in a thin layer on slides are prepared from combined washes in each group of rats (washes from 5 rats) using a cytocentrifuge (Cytospin®). The slides are fixed using an aerosol cytologic fixative (Cytoral®).
Conventional May Grunwaid Giemsa staining is carried out for evaluating the level of inflammation in the groups of rats that received C. albicans alone or combined with the treatment with the Sc I-3856 yeast.
Slides are prepared from the combined vaginal washes and MGG staining is carried out in order to evaluate the appearance of the vaginal epithelial cells, the presence of bacteria and yeasts and the presence of proinflammatory cells.
For cytologic investigation of the vaginal washes, slides are prepared from the combined vaginal washes and MGG staining is carried out.
The appearance of the vaginal epithelial cells, the presence of bacteria and yeasts and the presence of proinflammatory cells are evaluated by observation (results not shown).

Candida albicans [4] = test: Rat model of vaginal candidosis: viable C. albicans in the vaginal mucosa (cervico-uterine smears on Chrom-Agar plates); assay type: in vivo; parameters: AUC values (D2 to D13): unit not given beside the values; details: fluconazole 50 μg 1 h, 24 h, 48 h after infection
Candida albicans [5] = test: Rat model of vaginal candidosis: viable C. albicans CFUs in vaginal washes; assay type: in vivo; parameters: AUC values (D 2-13): unit not given beside the values; details: for number of C. albicans CFUs determined from the washes: fluconazole 50 μg intravaginal 1 h
Description: as §1, §2, §3
The viable colonies of Candida albicans are counted after two days of culture at 30° C. on a selective medium (Chrom-Agar plates, BD). […]
The number of C. albicans (in CFU) is determined from cervico-uterine smears and washes as described above.

## OC(Cn1cncn1)(Cn1cncn1)c1ccc(F)cc1F [fluconazole]
Candida albicans [1]
  quantity of antigens with mannoside structure: less in the rats treated with fluconazole than in the untreated rats
Candida albicans [2]; day 2
  mean growth of the colonies of C. albicans on Chrom-Agar plates (smears): 5.25 CFU
Candida albicans [2]; day 5
  mean growth of the colonies of C. albicans on Chrom-Agar plates (smears): 25 CFU
Candida albicans [2]; day 7
  mean growth of the colonies of C. albicans on Chrom-Agar plates (smears): 42 CFU
Candida albicans [2]; day 10
  mean growth of the colonies of C. albicans on Chrom-Agar plates (smears): 17 CFU
Candida albicans [2]; day 12, fluconazole
  infection of the vaginal mucosa with C. albicans on day 12: absence of infection with C. albicans; also recorded: prevent infection with Candida albicans completely
Candida albicans [2]; day 13
  mean growth of the colonies of C. albicans on Chrom-Agar plates (smears): 7 CFU
Candida albicans [2]; day 15
  mean growth of the colonies of C. albicans on Chrom-Agar plates (smears): 34.45 CFU
Candida albicans [2]; day 17
  mean growth of the colonies of C. albicans on Chrom-Agar plates (smears): 24.4 CFU
Candida albicans [2]; day 20
  mean growth of the colonies of C. albicans on Chrom-Agar plates (smears): 8.8 CFU
Candida albicans [2]; day 23
  mean growth of the colonies of C. albicans on Chrom-Agar plates (smears): 11.8 CFU
Candida albicans [2]; day 25
  mean growth of the colonies of C. albicans on Chrom-Agar plates (smears): 11.6 CFU
Candida albicans [2]; first 12 days after infection, fluconazole treatment
  decrease in the number of viable C. albicans in the vaginal mucosa (AUC) relative to untreated rats: 36%
Candida albicans [3]; day 2, fluconazole
  cytology of vaginal washes: inflammatory cells: prevents inflammatory infiltration
Candida albicans [3]; day 12, fluconazole
  cytology of vaginal washes: C. albicans and inflammatory cells: not one C. albicans cell is observed and only a few macrophages and neutrophils are present; also recorded: no C. albicans is observed, but some macrophages and neutrophils are observed
Candida albicans [3]; day D2 (by context), yeast as prophylactic or therapeutic treatment
  presence of C. albicans on slides of vaginal washes: presence of C. albicans is observed
Candida albicans [4]
  AUC values (D2 to D13): 236.875
  Difference (AUC D2 to D13 vs C. albicans untreated): 135.555
Candida albicans [5]; between days 2 and 12, fluconazole
  decrease in elimination of viable C. albicans (AUC of washes) relative to the untreated rats: 20%
Candida albicans [5]; day 2, 24 h, 48 h after infection
  number of C. albicans CFUs determined from the washes: 9 CFU
Candida albicans [5]; day 5, 24 h, 48 h after infection
  number of C. albicans CFUs determined from the washes: 53 CFU
Candida albicans [5]; day 7, 24 h, 48 h after infection
  number of C. albicans CFUs determined from the washes: 17 CFU
Candida albicans [5]; day 10, 24 h, 48 h after infection
  number of C. albicans CFUs determined from the washes: 3 CFU
Candida albicans [5]; day 13, 24 h, 48 h after infection
  number of C. albicans CFUs determined from the washes: 1 CFU
Candida albicans [5]; day 15, 24 h, 48 h after infection
  number of C. albicans CFUs determined from the washes: 6 CFU
Candida albicans [5]; day 17, 24 h, 48 h after infection
  number of C. albicans CFUs determined from the washes: 7 CFU
Candida albicans [5]; day 20, 24 h, 48 h after infection
  number of C. albicans CFUs determined from the washes: 3 CFU
Candida albicans [5]; day 23, 24 h, 48 h after infection
  number of C. albicans CFUs determined from the washes: 1 CFU
Candida albicans [5]; day 25, 24 h, 48 h after infection
  number of C. albicans CFUs determined from the washes: 4 CFU
Candida albicans [5]; days 2 to 5, fluconazole
  percentage of CFUs of C. albicans released/detected in washes in the first phase (D2-D5): 73%
Candida albicans [5]; first week after infection, fluconazole
  increase of the elimination of viable C. albicans: 45%
Candida albicans [5]; fluconazole, first 8 days after infection
  peak intensity of release of Candida in washes: 5 days
Candida albicans [5]; washes, fluconazole 50 μg 1 h, 24 h, 48 h after infection
  AUC values (D 2-13): 199

From patent publication US9533017B2, “Saccharomyces cerevisiae yeast for preventing and/or treating vaginal mycoses” (LESAFFRE ET COMPAGNIE, priority 2012, dated 2017)
